Measured values from US20240156104A1, “FUNGI-DERIVED COMPOSITION, ITS PRODUCTION PROCESS AND USES” (NATURAL RESOURCES INSTITUTE FINLAND (LUKE), priority 2021, published 2024).

Tested on: coxsackievirus A9 (CVA9)
Experiment: cytopathic effect (CPE) inhibition assay against CVA9 in A549 cells
Format: cell-based
Conditions: virus treated 37° C. 1 hour; for antiviral activity of commercial ganoderic acids against CVA9 (FIG. 10B): 12.5 μM, 25 μM, 50 μM, 100 μM and 500 μM, MOI 100; for antiviral activity of commercial ganoderic acid against CVA9 (FIG. 10A): 100 μM, 500 μM, 1 mM, 5 mM and 10 mM

C/C(=C\CC[C@@H](C)[C@H]1C[C@H](O)[C@@]2(C)C3=CC[C@H]4C(C)(C)C(=O)CC[C@]4(C)C3=CC[C@]12C)C(=O)O [GA TR, Ganoderic Acid TR]
antiviral activity of commercial ganoderic acids against CVA9 (FIG. 10B): fails to demonstrate any antiviral activity

CC(=O)O[C@H]1C[C@H]([C@H](C)CC/C=C(\C)C(=O)O)[C@@]2(C)CC=C3C(=CC[C@H]4C(C)(C)C(=O)CC[C@]34C)[C@]12C [GA TQ, Ganoderic Acid TQ]
antiviral activity of commercial ganoderic acids against CVA9 (FIG. 10B): fails to demonstrate any antiviral activity

C[C@H](CC(=O)C[C@@H](C)[C@H]1C[C@H](O)[C@@]2(C)C3=C(C(=O)C[C@]12C)[C@@]1(C)CCC(=O)C(C)(C)[C@@H]1C[C@@H]3O)C(=O)O [GA A, Ganoderic Acid A]
antiviral activity of commercial ganoderic acid against CVA9 (FIG. 10A) (MOI 66.7): fails to demonstrate any antiviral activity
antiviral activity of commercial ganoderic acid against CVA9 (FIG. 10A) (MOI 66.7, listed as Ganoderic Acid A): does not possess any antiviral activity

C/C(=C\CC[C@@H](C)[C@H]1CC[C@@]2(C)C3=CC[C@H]4C(C)(C)[C@@H](O)CC[C@]4(C)C3=CC[C@]12C)C(=O)O [GA Y, Ganoderic Acid Y]
antiviral activity of commercial ganoderic acids against CVA9 (FIG. 10B): fails to demonstrate any antiviral activity
